This note sets out measurements from ChEMBL document CHEMBL1127717, “Synthesis of new oligosaccharidyl-thio--cyclodextrins (CDS): a novel family of potent drug-targetting vectors” (1994).

The MIC is the lowest concentration found to suppress growth.

Values after ≈ are worked out from the molar mass of the structure shown.

System in one assay: not listed separately
The experiment in a line: (§1) In vitro flocculation inhibitory ability was determined towards Yeast cell wall lectin (KbWCL). In kind it is functional, Saccharomyces cerevisiae.
Conditions: not given
For `[Na+].[O-]CC1OC(SCC2OC3OC4C(CSC5OC(CO)C(O)C(O)C5O)OC(OC5C(CSC6OC(CO)C(O)C(O)C6O)OC(OC6C(CSC7OC(CO)C(O)C(O)C7O)OC(OC7C(CSC8OC(CO)C(O)C(O)C8O)OC(OC8C(CSC9OC(CO)C(O)C(O)C9O)OC(OC9C(CSC%10OC(CO)C(O)C(O)C%10O)OC(OC2C(O)C3O)C(O)C9O)C(O)C8O)C(O)C7O)C(O)C6O)C(O)C5O)C(O)C4O)C(O)C(O)C1O` (stereo in doubt; 6), the MIC was 700 µM.

For the compound `O=[N+]([O-])c1ccc(O[C@H]2O[C@H](CO)[C@@H](O)[C@H](O)[C@H]2O)cc1` (stereo in doubt; form 1), the MIC came out at 400 µM (≈ 121 µg/mL).

`[Na+].[O-]CC1OC(SCC2OC3OC4C(CSC5OC(CO)C(O)C(O)C5O)OC(OC5C(CSC6OC(CO)C(O)C(O)C6O)OC(OC6C(CSC7OC(CO)C(O)C(O)C7O)OC(OC7C(CSC8OC(CO)C(O)C(O)C8O)OC(OC8C(CSC9OC(CO)C(O)C(O)C9O)OC(OC9C(CSC%10OC(CO)C(O)C(O)C%10O)OC(OC2C(O)C3O)C(O)C9O)C(O)C8O)C(O)C7O)C(O)C6O)C(O)C5O)C(O)C4O)C(O)C(O)C1O` (stereo in doubt; 5) returned an MIC of 1660 µM.

In turn, `O=[N+]([O-])c1ccc(O[C@H]2O[C@H](CO)[C@@H](O)[C@H](O)[C@H]2O)cc1` (stereo in doubt; form 2) gave an MIC of 830 µM (≈ 250 µg/mL).

Still in this assay, the particulars now being: Saccharomyces cerevisiae; read-out: MIC.
Regarding `C[C@H]1OC(O)[C@H](O)[C@@H](O)[C@H]1O` (stereo not given in full), the MIC was determined as 3500 µM (≈ 575 µg/mL).

On to `OC[C@H]1O[C@H](OC[C@H]2O[C@H](O[C@]3(CO)O[C@H](CO)[C@@H](O)[C@@H]3O)[C@H](O)[C@@H](O)[C@@H]2O)[C@H](O)[C@@H](O)[C@H]1O` [RAFFINOSE], for which the MIC worked out at 1200 µM (≈ 605 µg/mL).

Regarding `O=C(CCCCCCCC(=O)N[C@@H]1O[C@@H](CO)[C@H](O)[C@H](O)[C@@H]1O)NC[C@@H]1O[C@@H]2O[C@H]3[C@H](O)[C@H](O)[C@@H](O[C@H]4[C@H](O)[C@H](O)[C@@H](O[C@H]5[C@H](O)[C@H](O)[C@@H](O[C@H]6[C@H](O)[C@H](O)[C@@H](O[C@H]7[C@H](O)[C@H](O)[C@@H](O[C@H]8[C@H](O)[C@H](O)[C@@H](O[C@H]1[C@H](O)[C@@H]2O)O[C@H]8CO)O[C@H]7CO)O[C@H]6CO)O[C@H]5CO)O[C@H]4CO)O[C@H]3CO`, the MIC was 1700 µM (≈ 2490 µg/mL).

For `OC[C@@H]1O[C@@H](SC[C@@H]2O[C@@H]3O[C@H]4[C@H](O)[C@H](O)[C@@H](O[C@H]5[C@H](O)[C@H](O)[C@@H](O[C@H]6[C@H](O)[C@H](O)[C@@H](O[C@H]7[C@H](O)[C@H](O)[C@@H](O[C@H]8[C@H](O)[C@H](O)[C@@H](O[C@H]9[C@H](O)[C@H](O)[C@@H](O[C@H]2[C@H](O)[C@@H]3O)O[C@H]9CO)O[C@H]8CO)O[C@H]7CO)O[C@H]6CO)O[C@H]5CO)O[C@H]4CO)[C@@H](O)[C@@H](O)[C@@H]1O`, the MIC was 3750 µM (≈ 4920 µg/mL).

As to `OCC1OC(SCCSCC2OC3OC4C(CSCCSC5OC(CO)C(O)C(O)C5O)OC(OC5C(CSCCSC6OC(CO)C(O)C(O)C6O)OC(OC6C(CSCCSC7OC(CO)C(O)C(O)C7O)OC(OC7C(CSCCSC8OC(CO)C(O)C(O)C8O)OC(OC8C(CSCCSC9OC(CO)C(O)C(O)C9O)OC(OC9C(CSCCSC%10OC(CO)C(O)C(O)C%10O)OC(OC2C(O)C3O)C(O)C9O)C(O)C8O)C(O)C7O)C(O)C6O)C(O)C5O)C(O)C4O)C(O)C(O)C1O` (stereo not given), the MIC came out at 410 µM (≈ 1150 µg/mL).

As for `OC[C@H]1O[C@H](OCC2O[C@@H](O)[C@H](O)[C@@H](O)[C@@H]2O)[C@H](O)[C@@H](O)[C@H]1O` (stereo not given in full) [MELIBIOSE], the MIC amounted to 600 µM (≈ 205 µg/mL).

`O=C(NC[C@@H]1O[C@@H]2O[C@H]3[C@H](O)[C@H](O)[C@@H](O[C@H]4[C@H](O)[C@H](O)[C@@H](O[C@H]5[C@H](O)[C@H](O)[C@@H](O[C@H]6[C@H](O)[C@H](O)[C@@H](O[C@H]7[C@H](O)[C@H](O)[C@@H](O[C@H]8[C@H](O)[C@H](O)[C@@H](O[C@H]1[C@H](O)[C@@H]2O)O[C@H]8CO)O[C@H]7CO)O[C@H]6CO)O[C@H]5CO)O[C@H]4CO)O[C@H]3CO)C(CS[C@@H]1O[C@@H](CO)[C@H](O)[C@H](O)[C@@H]1O)CS[C@@H]1O[C@@H](CO)[C@H](O)[C@H](O)[C@@H]1O`: the MIC came to 2000 µM (≈ 3190 µg/mL).

In the next assay the test system is Saccharomyces cerevisiae. Described as §1. In kind it is functional.
Conditions: not given
In the case of `OC1OC[C@@H](O)[C@@H](O)[C@@H]1O` (stereo not given in full), the MIC entry is “No inhibition”.

For `OC[C@H]1O[C@@H]2O[C@H]3[C@H](O)[C@@H](O)[C@@H](O[C@H]4[C@H](O)[C@@H](O)[C@@H](O[C@H]5[C@H](O)[C@@H](O)[C@@H](O[C@H]6[C@H](O)[C@@H](O)[C@@H](O[C@H]7[C@H](O)[C@@H](O)[C@@H](O[C@H]1[C@H](O)[C@H]2O)O[C@@H]7CO)O[C@@H]6CO)O[C@@H]5CO)O[C@@H]4CO)O[C@@H]3CO`, the MIC result is “No inhibition”.

Regarding `OC[C@H]1OC(O)[C@H](O)[C@@H](O)[C@@H]1O` (stereo not given in full), the MIC entry is “No inhibition”.

Turning to `OC[C@H]1O[C@@H]2O[C@H]3[C@H](O)[C@@H](O)[C@@H](O[C@H]4[C@H](O)[C@@H](O)[C@@H](O[C@H]5[C@H](O)[C@@H](O)[C@@H](O[C@H]6[C@H](O)[C@@H](O)[C@@H](O[C@H]7[C@H](O)[C@@H](O)[C@@H](O[C@H]8[C@H](O)[C@@H](O)[C@@H](O[C@H]1[C@H](O)[C@H]2O)O[C@@H]8CO)O[C@@H]7CO)O[C@@H]6CO)O[C@@H]5CO)O[C@@H]4CO)O[C@@H]3CO`, the MIC entry was “No inhibition”.
